The record followed here is ChEMBL document CHEMBL5523701, “Structure-based discovery of small molecule inhibitors of FKBP51-Hsp90 protein-protein interaction” (Eur J Med Chem, 2024).

Data set [1] deals with T1, Peptidyl-prolyl cis-trans isomerase FKBP5 (Homo sapiens, UniProt Q13451).
T1 sequence (Q13451 whole entry): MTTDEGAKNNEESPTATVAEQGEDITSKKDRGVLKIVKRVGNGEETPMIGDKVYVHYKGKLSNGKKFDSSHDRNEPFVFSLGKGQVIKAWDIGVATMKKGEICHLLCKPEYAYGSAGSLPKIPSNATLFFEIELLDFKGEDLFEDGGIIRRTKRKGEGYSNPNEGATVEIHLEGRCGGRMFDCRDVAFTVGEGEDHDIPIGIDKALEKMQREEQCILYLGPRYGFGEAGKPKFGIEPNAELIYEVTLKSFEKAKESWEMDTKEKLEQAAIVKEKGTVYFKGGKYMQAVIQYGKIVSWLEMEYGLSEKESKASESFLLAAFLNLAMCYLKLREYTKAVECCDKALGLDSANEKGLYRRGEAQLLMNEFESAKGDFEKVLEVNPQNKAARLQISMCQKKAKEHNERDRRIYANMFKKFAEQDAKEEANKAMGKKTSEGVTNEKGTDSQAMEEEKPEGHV
The data set can be described thus: Binding affinity to GST-tagged human FKBP51 expressed in Escherichia coli BL21 (DE3) immobilized in CM7 sensor chip assessed as equilibrium dissociation constant by SPR analysis.

Data set [2] is described as follows: Inhibition of GST-tagged FKBP51 N381Y mutant (unknown origin) using NH2-EDASRMEEVD-COOH peptide as substrate preincubated for 15 mins followed by substrate addition measured after 15 mins by Alpha Screen assay. Further details: species or system Homo sapiens.
Data set [3] can be described thus: Solubility of compound in cell culture media upto 30 uM. In kind it is physicochemical.
Data set [4] relates to HEK293. The data set can be described thus: Induction of cell proliferation in HEK293 cells at 10 uM measured for 1 to 4 hrs by MTT assay relative to control. The data set is classed as functional, Homo sapiens. Particulars: time 1-4 hrs.

For the compound `COC(=O)c1c(NC(=O)CSc2nnc(-c3ccco3)c(-c3ccco3)n2)sc(C)c1C`, the dissociation constant (Kd) in data set [1] was 48.4 µM. Also, it took 0.5 µM to reach half-maximal inhibition in data set [2] (IC50). Moreover, the solubility result in data set [3] is “Soluble”. The same compound registered an Activity in data set [4] of 10%.
